Tested on: soluble epoxide hydrolase (sEH)
Assay: Fluorescent assay for soluble epoxide hydrolase (CMNPC substrate), percent inhibition at the recited concentration
Type: biochemical
Conditions: Inhibition Conc. 50 nM
Description: Fluorescent Assay for Mouse and Human Soluble Epoxide Hydrolase Recombinant mouse sEH (MsEH) and human sEH (HsEH) were produced in a baculovirus expression system as previously reported. Grant et al., J. Biol. Chem., 268:17628-17633 (1993); Beetham et al., Arch. Biochem. Biophys., 305:197-201 (1993). The expressed proteins were purified from cell lysate by affinity chromatography. Wixtrom et al., Anal. Biochem., 169:71-80 (1988). Protein concentration was quantified using the Pierce BCA assay using bovine serum albumin as the calibrating standard. The preparations were at least 97% pure as judged by SDS-PAGE and scanning densitometry. They contained no detectable esterase or glutathione transferase activity which can interfere with the assay. The assay was also evaluated with similar results in crude cell lysates or homogenate of tissues. The IC50s for each inhibitor were determined according to the following procedure: […] Jones P. D. et al.; Analytical Biochemistry 2005; 343: pp. 66-75) Bis/Tris HCl 25 mM pH 7.0 containing 0.1 mg/mL of BSA (buffer […] at 0.25 mM in DMSO. Mother solution of enzyme in buffer A (Mouse sEH at 6 μg/mL and Human sEH at 5 μg/mL). Inhibitor dissolved in DMSO at the appropriate concentration. In a black 96 well plate, fill all the wells with 150 μL of buffer A. Add 2 μL of DMSO in well A2 and A3, and then add 2 μL of inhibitor solution in A1 and A4 through A12. Add 150 μL of buffer A in row A, then mix several time and transfer 150 μL to row B. Repeat this operation up to row H. The 150 μL removed from row H is discarded. Add 20 μL of buffer A in column 1 and 2, then add 20 μL of enzyme solution to column 3 to 12. Incubate the plate for 5 minutes in the plate reader at 30° C. During incubation prepare the working solution of substrate by mixing 3.68 mL of buffer A (4×0.920 mL) with 266 μL (2×133 μL) of substrate solution). At t=0, add 30 μL of working substrate solution with multi-channel pipette labeled “Briggs 303” and start the reading ([S]final: 5 μM). Read with ex: 330 nm (20 nm) and em: 465 nm (20 nm) every 30 second for 10 minutes. The velocities are used to analyze and calculate the IC50s. Tables 1-7 above provide the percent inhibition of the enzyme when tested at the concentration recited therein.

Row | Compound | % inh. [%]
1 | CNS(=O)(=O)c1cccc(C(=O)N2CCC(NC(=O)Nc3ccc(OC(F)(F)F)cc3)CC2)c1 [Compound 4-10, N-methyl-3-(4-(3-(4-(trifluoromethoxy)-phenyl)ureido)-piperidine-1-carbonyl)benzene-sulfonamide] | 93
2 | CC(C)(C)OC(=O)N1CCC(NC(=O)Nc2ccc(S(=O)(=O)N3CCOCC3)cc2)CC1 [Compound 5-1, tert-butyl 4-(3-(4-(morpholinosulfonyl)-phenyl)ureido)-piperidine-1-carboxylate] | 80
3 | CC(C)(C)OC(=O)N1CCC(NC(=O)Nc2ccc3ncccc3c2)CC1 [Compound 6-1, tert-butyl 4-(3-quinolin-6-yl-ureido)piperidine-1-carboxylate] | 86
4 | CC(C)(C)OC(=O)N1CCC(NC(=O)Nc2ccc3c(c2)CCC3)CC1 [Compound 6-5, tert-butyl 4-(3-(2,3-dihydro-1H-inden-5-yl)ureido)-piperidine-1-carboxylate] | 92
5 | COc1ccc(S(=O)(=O)N2CCC(NC(=O)NC34CC5CC(CC(C5)C3)C4)CC2)cc1 [Compound 7-1, 1-(1-adamantyl)-3-(1-(4-methoxyphenylsulfonyl)-piperidin-4-yl)urea] | 99
6 | O=C(Nc1ccc(OC(F)(F)F)cc1)NC1CCN(C(=O)c2ccccn2)CC1 [Compound 7-2, 1-(1-picolinoylpiperidin-4-yl)-3-(4-(trifluoro-methoxy)phenyl)urea] | 98
7 | CCC1CCC(NC(=O)NC2CCN(C(C)=O)CC2)CC1 (stereo not drawn) [Compound 7-4, 1-(1-acetylpiperidin-4-yl)-3-(4-ethylcyclohexyl)urea] | 72
8 | CC(=O)N1CCC(NC(=O)NC2CCC3CCCCC3C2)CC1 (stereo not drawn) [Compound 7-5, 1-(1-acetylpiperidin-4-yl)-3-(decahydronaphthalen-2-yl)urea] | 93
9 | CC(=O)N1CCC(NC(=O)NC2CCC(C)(C)CC2)CC1 [Compound 7-6, 1-(1-acetylpiperidin-4-yl)-3-(4,4-dimethylcyclo-hexyl)urea] | 70
10 | CC(=O)N1CCC(NC(=O)NC2CC3CCC2C3)CC1 (stereo not drawn) [Compound 7-7, 1-(1-acetylpiperidin-4-yl)-3-(bicyclo[2.2.1]heptan-2-yl)urea] | 88
11 | Cc1nc(C(=O)N2CCC(NC(=O)NC34CC5CC(CC(C5)C3)C4)CC2)c(C)o1 [Compound 7-8, 1-(1-adamantyl)-3-(1-(2,5-dimethyloxazole-4-carbonyl)piperidin-4-yl)urea] | 89
12 | CC(C)(C)OC(=O)N1CCC(NC(=O)Nc2ccc(Oc3ccccc3)cc2)CC1 [Compound 7-9, tert-butyl 4-(3-(4-phenoxyphenyl)ureido)-piperidine-1-carboxylate] | 92
13 | CCCOc1ccc(NC(=O)NC2CCN(C(=O)OC(C)(C)C)CC2)cc1 [Compound 7-10, tert-butyl 4-(3-(4-propoxyphenyl)ureido)-piperidine-1-carboxylate] | 80
14 | CC(C)(C)C(=O)N1CCC(NC(=O)NC23CC4CC(CC(C4)C2)C3)CC1 [Compound 7-13, 1-(1-adamantyl)-3-(1-pivaloylpiperidin-4-yl)urea] | 91
15 | COC(=O)N1CCC(NC(=O)Nc2ccc(C(F)(F)F)cc2)CC1 [Compound 7-14, methyl 4-(3-(4-(trifluoromethyl)phenyl)ureido)piperidine-1-carboxylate] | 92
16 | CCOC(=O)N1CCC(NC(=O)Nc2ccc(C(F)(F)F)cc2)CC1 [Compound 7-15, ethyl 4-(3-(4-(trifluoromethyl)phenyl)ureido)piperidine-1-carboxylate] | 93
17 | O=C(Nc1ccc(C(F)(F)F)cc1)NC1CCN(C(=O)Nc2ccc(C(F)(F)F)cc2)CC1 [Compound 7-16, N-(4-(trifluoromethyl)phenyl)-4-(3-(4-(trifluoro-methyl)phenyl)ureido)-piperidine-1-carboxamide] | 98

Same assay, conditions: Inhibition Conc. 200 nM

Row | Compound | % inh. [%]
18 | Cc1nc2ccc(NC(=O)NC3CCN(C(=O)OC(C)(C)C)CC3)cc2s1 [Compound 6-14, tert-butyl 4-(3-(2-methylbenzo[d]thiazol-6-yl)ureido)piperidine-1-carboxylate] | 77
19 | COC(=O)c1ccc(NC(=O)NC2CCN(C(=O)OC(C)(C)C)CC2)s1 [Compound 6-17, tert-butyl 4-(3-(5-(methoxycarbonyl)thiophen-2-yl)ureido)piperidine-1-carboxylate] | 87

Same assay, conditions: Inhibition Conc. 500 nM

Row | Compound | % inh. [%]
20 | CNS(=O)(=O)c1ccc(C(=O)N2CCC(NC(=O)Nc3ccc(F)cc3)CC2)cc1 [Compound 4-11, 4-(4-(3-(4-fluorophenyl)ureido)piperidine-1-carbonyl)-N-methylbenzene-sulfonamide] | 94
21 | CC(=O)N1CCC(NC(=O)Nc2ccc(S(=O)(=O)N3CCOCC3)cc2)CC1 [Compound 5-2, 1-(1-acetylpiperidin-4-yl)-3-(4-(morpholinosulfonyl)phenyl)urea] | 90
22 | CC(C)(C)OC(=O)N1CCC(NC(=O)Nc2ccc3cc[nH]c3c2)CC1 [Compound 6-2, tert-butyl 4-(3-1H-indol-6-yl-ureido)piperidine-1-carboxylate] | 87
23 | CC(=O)N1CCC(NC(=O)Nc2ccc3ncccc3c2)CC1 [Compound 6-4, 1-(1-acetylpiperidin-4-yl)-3-(quinolin-6-yl)urea] | 70
24 | CC(=O)N1CCC(NC(=O)Nc2ccc3c(c2)CCC3)CC1 [Compound 6-6, 1-(1-acetyl-piperidin-4-yl)-3-(2,3-dihydro-1H-inden-5-yl)urea] | 93
25 | CC(C)(C)OC(=O)N1CCC(NC(=O)Nc2ccc(-c3nnn[nH]3)cc2)CC1 [Compound 6-8, tert-butyl 4-(3-(4-(1H-tetrazol-5-yl)phenyl)-ureido)piperidine-1-carboxylate] | 93
26 | CC(=O)N1CCC(NC(=O)NC2CCC(C(C)(C)C)CC2)CC1 (stereo not drawn) [Compound 7-3, 1-(1-acetylpiperidin-4-yl)-3-(4-tert-butylcyclohexyl)urea] | 86
27 | CC(=O)N1CCC(NC(=O)Nc2ccc(Oc3ccccc3)cc2)CC1 [Compound 7-12, 1-(1-acetylpiperidin-4-yl)-3-(4-phenoxyphenyl)urea] | 95

Same assay, conditions: Inhibition Conc. 2000 nM

Row | Compound | % inh. [%]
28 | CC(=O)N1CCC(NC(=O)Nc2ccccn2)CC1 [Compound 6-10, 1-(1-acetylpiperidin-4-yl)-3-(pyridin-2-yl)urea] | 18
29 | COc1ccc(NC(=O)NC2CCN(C(C)=O)CC2)cn1 [Compound 6-11, 1-(1-acetylpiperidin-4-yl)-3-(6-methoxypyridin-3-yl)urea] | 44
30 | CC(=O)N1CCC(NC(=O)Nc2cccnc2)CC1 [Compound 6-12, 1-(1-acetylpiperidin-4-yl)-3-(pyridin-3-yl)urea] | 40
31 | COc1ccc(NC(=O)NC2CCN(C(=O)C(C)(C)C)CC2)cn1 [Compound 6-13, 1-(6-methoxypyridin-3-yl)-3-(1-pivaloylpiperidin-4-yl)urea] | 97
32 | CC(=O)N1CCC(NC(=O)Nc2ccc3nc(C)sc3c2)CC1 [Compound 6-15, 1-(1-acetylpiperidin-4-yl)-3-(2-methylbenzo[d]thiazol-6-yl)urea] | 70
33 | COC(=O)c1ccc(NC(=O)NC2CCN(C(C)=O)CC2)s1 [Compound 6-16, methyl 5-(3-(1-acetylpiperidin-4-yl)ureido)thiophene-2-carboxylate] | 78
34 | COC(=O)c1ccc(NC(=O)NC2CCN(C(=O)OC(C)(C)C)CC2)o1 [Compound 6-18, tert-butyl 4-(3-(5-(methoxycarbonyl)furan-2-yl)ureido)piperidine-1-carboxylate] | 89
35 | CC(=O)N1CCC(NC(=O)Nc2ccc3c(c2)OCCO3)CC1 [Compound 6-19, 1-(1-acetylpiperidin-4-yl)-3-(2,3-dihydrobenzo[b][1,4]dioxin-6-yl)urea] | 87

Same assay, conditions: Inhibition Conc. 5000 nM

Row | Compound | % inh. [%]
36 | CC(C)(C)OC(=O)N1CCC(NC(=O)Nc2ccncc2)CC1 [Compound 6-3, tert-butyl 4-(3-pyridin-4-yl-ureido)piperidine-1-carboxylate] | 81
37 | CC(=O)N1CCC(NC(=O)Nc2ccc(-c3nnn[nH]3)cc2)CC1 [Compound 6-9, 1-(4-(1H-tetrazol-5-yl)phenyl)-3-(1-acetylpiperidin-4-yl)urea] | 84
38 | CCCOc1ccc(NC(=O)NC2CCN(C(C)=O)CC2)cc1 [Compound 7-11, 1-(1-acetylpiperidin-4-yl)-3-(4-propoxyphenyl)urea] | 94

Same assay, conditions: Inhibition Conc. 50000 nM

Row | Compound | % inh. [%]
39 | CC(=O)N1CCC(NC(=O)Nc2ccncc2)CC1 [Compound 6-7, 1-(1-acetyl-piperidin-4-yl)-3-(pyridin-4-yl)urea] | 53
